# From US11524963B2, “Substituted pyrazolo[3,4-d]pyrimidines as RET kinase inhibitors” (Array Biopharma Inc., priority 2018, dated 2022)
# Substitutions are numbered along the chain they refer to.
# How the values were obtained:
# [1] = target: RET kinase G810R (Homo sapiens, UniProt P07949, G810R); experiment: RET Enzyme Assay (HTRF KinEASE-TK), G810R; assay type: biochemical
# [2] = target: RET kinase M918T (Homo sapiens, UniProt P07949, M918T); experiment: RET Enzyme Assay (HTRF KinEASE-TK), M918T; assay type: biochemical
# [3] = target: RET kinase V804M (Homo sapiens, UniProt P07949, V804M); experiment: RET Enzyme Assay (HTRF KinEASE-TK), V804M; assay type: biochemical
# [4] = target: RET kinase G810S (Homo sapiens, UniProt P07949, G810S); experiment: RET Enzyme Assay (HTRF KinEASE-TK), G810S; assay type: biochemical
# [5] = target: RET kinase Wild Type (Homo sapiens, UniProt P07949); experiment: RET Enzyme Assay (HTRF KinEASE-TK), Wild Type; assay type: biochemical
# [6] = target: T1, HEK-293 cells expressing a Kif5b-RET fusion protein (Homo sapiens, UniProt P07949); experiment: RET Cell Assay (phospho-RET Tyr1062); assay type: cell-based; conditions: 1 hour with compound, phospho-RET(Tyr1062) normalized to GAPDH, read-out: KIF5B-RET pTYR1062 Cell IC50
# T1 construct: expressed in transfected cells; host or cells: HEK-293; the other entry of the earlier key: KIF5B (P33176, Kinesin-1 heavy chain)
# T1 sequence (P07949 713-1063 limits assumed): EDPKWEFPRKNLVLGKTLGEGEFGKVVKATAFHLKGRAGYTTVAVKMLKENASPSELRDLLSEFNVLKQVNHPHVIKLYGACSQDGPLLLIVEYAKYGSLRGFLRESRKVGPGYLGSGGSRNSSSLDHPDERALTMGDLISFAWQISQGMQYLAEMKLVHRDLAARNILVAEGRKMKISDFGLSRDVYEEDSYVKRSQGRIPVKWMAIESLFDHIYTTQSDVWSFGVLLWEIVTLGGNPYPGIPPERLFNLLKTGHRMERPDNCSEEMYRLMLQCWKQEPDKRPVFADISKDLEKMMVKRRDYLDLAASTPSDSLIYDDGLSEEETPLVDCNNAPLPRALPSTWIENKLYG
# Procedure: (§1) The cellular potency of compounds inhibiting RET kinase were determined in HEK-293 cells expressing a Kif5b-RET fusion protein. Briefly, HEK-293 cells expressing a Kif5b-RET fusion protein were plated at 50K cells/well in 96 well poly-D-Lysine coated plates the day prior to the assay. The cells were incubated for 1 hour with test compound in DMEM (Dulbecco's Modified Eagle Medium) at a final DMSO concentration of 0.5%. […] After 1 hour the media was removed, the cells were fixed with 3.8% formaldehyde for 20 min, washed with PBS, and permeabilized for 10 min with 100% methanol. […] All antibodies were diluted in LI-COR Block containing 0.05% Tween. The plates were washed with PBS-0.05% Tween20, 100 μL PBS is added to each well, and the plates were read on a LI-COR Aerius fluorescent plate reader. The phospho-RET signal was normalized to the GAPDH signal. 100 POC (percent of control) was determined using no test compounds and 0 POC was determined using 1 μM of a control inhibitor. The POC values were fit to a 4 parameter logistic curve. The IC50 value is the point where the curve crosses 50 POC.
# [7] = target: T2, HEK-293 cells expressing a G810R mutant RET Kif5b-RET fusion protein (Homo sapiens, UniProt P07949, G810R); experiment: RET G810R Mutant Cell Assay (phospho-RET Tyr1062); assay type: cell-based; conditions: 1 hour with compound, phospho-RET(Tyr1062) normalized to GAPDH
# T2 construct: expressed in transfected cells; host or cells: HEK-293; the other entry of the earlier key: KIF5B (P33176, Kinesin-1 heavy chain)
# T2 sequence (P07949 713-1063 G810R limits assumed): T1 sequence (P07949 713-1063 limits assumed) with G98R
# Procedure: RET G810R and G810S Mutant Cell Assay
# as §1, with “expressing a G810R or G810S mutant RET Kif5b-RET fusion” for “expressing a Kif5b-RET fusion”, “μL PBS was added to” for “μL PBS is added to”, “POC values are fit to” for “POC values were fit to”
# RET kinase Wild Type, sequence (P07949 29-1114): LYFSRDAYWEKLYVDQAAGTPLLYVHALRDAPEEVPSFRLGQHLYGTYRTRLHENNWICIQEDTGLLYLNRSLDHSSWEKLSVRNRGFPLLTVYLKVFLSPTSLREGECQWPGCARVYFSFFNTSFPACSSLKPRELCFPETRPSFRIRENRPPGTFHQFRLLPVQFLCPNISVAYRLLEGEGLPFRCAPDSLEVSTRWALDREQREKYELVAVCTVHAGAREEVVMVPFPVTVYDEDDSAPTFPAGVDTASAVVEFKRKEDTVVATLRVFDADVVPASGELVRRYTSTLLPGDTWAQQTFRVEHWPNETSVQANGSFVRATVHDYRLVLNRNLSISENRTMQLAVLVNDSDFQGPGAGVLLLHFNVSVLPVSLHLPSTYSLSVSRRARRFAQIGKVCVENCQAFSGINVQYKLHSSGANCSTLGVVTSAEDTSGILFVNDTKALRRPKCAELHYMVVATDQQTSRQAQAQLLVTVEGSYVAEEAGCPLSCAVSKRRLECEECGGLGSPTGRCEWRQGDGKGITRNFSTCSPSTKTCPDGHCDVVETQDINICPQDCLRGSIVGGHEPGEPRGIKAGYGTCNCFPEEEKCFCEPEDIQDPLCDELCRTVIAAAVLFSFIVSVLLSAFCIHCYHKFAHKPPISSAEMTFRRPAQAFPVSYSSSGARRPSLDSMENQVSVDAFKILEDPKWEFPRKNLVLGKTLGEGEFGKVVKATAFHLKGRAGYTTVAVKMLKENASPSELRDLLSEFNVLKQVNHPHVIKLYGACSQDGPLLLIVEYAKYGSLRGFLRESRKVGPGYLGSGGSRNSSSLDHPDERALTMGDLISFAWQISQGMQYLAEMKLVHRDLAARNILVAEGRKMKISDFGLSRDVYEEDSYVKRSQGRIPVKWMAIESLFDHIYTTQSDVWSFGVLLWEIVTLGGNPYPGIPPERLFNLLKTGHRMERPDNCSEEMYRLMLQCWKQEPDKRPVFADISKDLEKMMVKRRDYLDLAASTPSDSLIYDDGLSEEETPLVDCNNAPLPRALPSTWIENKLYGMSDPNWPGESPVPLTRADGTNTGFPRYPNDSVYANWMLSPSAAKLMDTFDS
# RET kinase G810S, sequence (P07949 29-1114 G810S): as the sequence (P07949 29-1114) above, with G782S counted along it
# RET kinase V804M, sequence (P07949 29-1114 V804M): as the sequence (P07949 29-1114) above, with V776M counted along it
# RET kinase M918T, sequence (P07949 29-1114 M918T): as the sequence (P07949 29-1114) above, with M890T counted along it
# RET kinase G810R, sequence (P07949 29-1114 G810R): as the sequence (P07949 29-1114) above, with G782R counted along it
SMILES,IC50 [1],IC50 [2],IC50 [3],IC50 [4],IC50 [5],IC50 [6],IC50 [7]
"CC(C)n1nc(-c2noc(C3CC3)c2Br)c2c(N)ncnc21 [Example 1, 3-(4-bromo-5-cyclopropylisoxazol-3-yl)-1-isopropyl-1H-pyrazolo[3,4-d]pyrimidin-4-amine]",3.8 nM,1.8 nM,5.7 nM,11.7 nM,2.1 nM,263 nM,–
"CC(C)n1nc(-c2noc(C3CC3)c2-c2ccn(C)n2)c2c(N)ncnc21 [Example 2, 3-(5-cyclopropyl-4-(1-methyl-1H-pyrazol-3-yl)isoxazol-3-yl)-1-isopropyl-1H-pyrazolo[3,4-d]pyrimidin-4-amine]",4.4 nM,1.1 nM,2.1 nM,4.4 nM,1.2 nM,75 nM,247 nM
"CC(C)n1nc(-c2noc(C3CC3)c2C2=CCOCC2)c2c(N)ncnc21 [Example 4, 3-(5-cyclopropyl-4-(3,6-dihydro-2H-pyran-4-yl)isoxazol-3-yl)-1-isopropyl-1H-pyrazolo[3,4-d]pyrimidin-4-amine]",13.5 nM,7.6 nM,28.8 nM,37.3 nM,5.2 nM,–,–
"CC(C)n1nc(-c2noc(C3CC3)c2C2=CCC(=O)CC2)c2c(N)ncnc21 [Example 5, 4-(3-(4-amino-1-isopropyl-1H-pyrazolo[3,4-d]pyrimidin-3-yl)-5-cyclopropylisoxazol-4-yl)cyclohex-3-en-1-one]",7.1 nM,3.2 nM,20.5 nM,11.7 nM,2.7 nM,105 nM,–
"CC(C)n1nc(-c2noc(C3CC3)c2-c2ccccc2)c2c(N)ncnc21 [Example 6, 3-(5-cyclopropyl-4-phenylisoxazol-3-yl)-1-isopropyl-1H-pyrazolo[3,4-d]pyrimidin-4-amine]",10 nM,4.5 nM,23.9 nM,26.2 nM,4.7 nM,488 nM,–
"CC(C)n1nc(-c2noc(C3CC3)c2-c2cccnc2)c2c(N)ncnc21 [Example 7, 3-(5-cyclopropyl-4-(pyridin-3-yl)isoxazol-3-yl)-1-isopropyl-1H-pyrazolo[3,4-d]pyrimidin-4-amine]",8.4 nM,8.7 nM,52.2 nM,38.9 nM,7.1 nM,–,–
"CC(C)n1nc(-c2noc(C3CC3)c2-c2ccncc2)c2c(N)ncnc21 [Example 8, 3-(5-cyclopropyl-4-(pyridin-4-yl)isoxazol-3-yl)-1-isopropyl-1H-pyrazolo[3,4-d]pyrimidin-4-amine]",3.9 nM,3.9 nM,29 nM,20.6 nM,2.9 nM,–,–
"CC(C)n1nc(-c2noc(C3CC3)c2C2=CCCCO2)c2c(N)ncnc21 [Example 9, 3-(5-cyclopropyl-4-(3,4-dihydro-2H-pyran-6-yl)isoxazol-3-yl)-1-isopropyl-1H-pyrazolo[3,4-d]pyrimidin-4-amine]",1.4 nM,0.2 nM,0.6 nM,1.4 nM,0.3 nM,24 nM,137 nM
"CC(C)n1nc(-c2noc(C3CC3)c2C2=COCCC2)c2c(N)ncnc21 [Example 10, 3-(5-cyclopropyl-4-(3,4-dihydro-2H-pyran-5-yl)isoxazol-3-yl)-1-isopropyl-1H-pyrazolo[3,4-d]pyrimidin-4-amine]",4.1 nM,2.2 nM,13.8 nM,13.6 nM,1.5 nM,199 nM,–
"CC(C)n1nc(-c2noc(C3CC3)c2-c2ncccn2)c2c(N)ncnc21 [Example 11, 3-(5-cyclopropyl-4-(pyrimidin-2-yl)isoxazol-3-yl)-1-isopropyl-1H-pyrazolo[3,4-d]pyrimidin-4-amine]",3.5 nM,1.2 nM,4.4 nM,4.9 nM,1.5 nM,86 nM,–
"CC(C)n1nc(-c2noc(C3CC3)c2I)c2c(N)ncnc21 [Example 12, 3-(5-cyclopropyl-4-iodoisoxazol-3-yl)-1-isopropyl-1H-pyrazolo[3,4-d]pyrimidin-4-amine]",11.4 nM,4.1 nM,15.1 nM,24.3 nM,5.3 nM,–,–
"CC(C)n1nc(-c2noc(C3CC3)c2C2=CCC(O)CC2)c2c(N)ncnc21 (centres unmarked) [Example 14, 4-(3-(4-amino-1-isopropyl-1H-pyrazolo[3,4-d]pyrimidin-3-yl)-5-cyclopropylisoxazol-4-yl)cyclohex-3-en-1-ol]",4.1 nM,1.5 nM,7 nM,4.9 nM,1.2 nM,35 nM,86 nM
"CC(C)n1nc(-c2noc(C3CC3)c2C2=CCC(C)(O)CC2)c2c(N)ncnc21 (centres unmarked) [Example 15, 4-(3-(4-amino-1-isopropyl-1H-pyrazolo[3,4-d]pyrimidin-3-yl)-5-cyclopropylisoxazol-4-yl)-1-methylcyclohex-3-en-1-ol]",6.3 nM,1.6 nM,6.5 nM,6.3 nM,1.3 nM,42 nM,263 nM
"CC(C)n1nc(-c2noc(C3CC3)c2C2CCCCO2)c2c(N)ncnc21 (centres unmarked) [Example 16, 3-(5-cyclopropyl-4-(tetrahydro-2H-pyran-2-yl)isoxazol-3-yl)-1-isopropyl-1H-pyrazolo[3,4-d]pyrimidin-4-amine]",3.6 nM,0.7 nM,1.3 nM,4 nM,0.6 nM,28 nM,162 nM
"CC(C)n1nc(-c2noc(C3CC3)c2C2CCOCC2)c2c(N)ncnc21 [Example 17, 3-(5-cyclopropyl-4-(tetrahydro-2H-pyran-4-yl)isoxazol-3-yl)-1-isopropyl-1H-pyrazolo[3,4-d]pyrimidin-4-amine]",2.2 nM,0.8 nM,7.5 nM,3.7 nM,0.7 nM,68 nM,264 nM
"CC(C)n1nc(-c2noc([C@@H](C)O)c2-c2ccccn2)c2c(N)ncnc21 [Example 18, (R)-1-(3-(4-amino-1-isopropyl-1H-pyrazolo[3,4-d]pyrimidin-3-yl)-4-(pyridin-2-yl)isoxazol-5-yl)ethan-1-ol]",4.4 nM,1 nM,3.1 nM,4.3 nM,1.1 nM,42 nM,–
